According to patent US11976057B2, “MrgX2 antagonists” (GlaxoSmithKline Intellectual Property Development Limited, priority 2020, dated 2024):
Structures can show the parent of a compound that is named as a salt.

These molecules were tested against T1, human MRGPRX2 (Homo sapiens, UniProt Q96LB1) (assay: Ca2+ mobilization assay (FLIPR TETRA): inhibition of Cortistatin-14 mediated MRGPRX2 activation). Details: not given.
T1 sequence (Q96LB1 1-330): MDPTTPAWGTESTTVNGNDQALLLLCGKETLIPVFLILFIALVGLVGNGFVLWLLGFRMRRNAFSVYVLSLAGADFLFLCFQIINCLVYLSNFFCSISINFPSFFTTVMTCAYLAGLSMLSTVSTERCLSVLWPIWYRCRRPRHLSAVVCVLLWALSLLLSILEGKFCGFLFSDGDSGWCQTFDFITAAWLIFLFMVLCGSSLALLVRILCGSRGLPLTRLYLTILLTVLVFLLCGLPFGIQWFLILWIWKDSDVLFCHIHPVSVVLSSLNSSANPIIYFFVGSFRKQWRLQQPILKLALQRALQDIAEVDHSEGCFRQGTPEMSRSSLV

Row | SMILES | IC50
1 | CC(=O)NCc1cc(C2CN(C(C)C(=O)Nc3ccc(F)cn3)CCC2(F)F)cc[n+]1[O-] (stereo not shown) [Example 263] | 100 to 3160 nM
2 | C[C@@H](C(=O)Nc1ccc(C2CCC2)cn1)N1CCC(F)(F)[C@@H](c2ccc(=O)[nH]c2)C1 [Example 18, (S)-N-(5-cyclobutylpyridin-2-yl)-2-((S)-4,4-difluoro-3-(6-oxo-1,6-dihydropyridin-3-yl)piperidin-1-yl)propanamide] | 100 to 3160 nM
3 | C[C@@H](C(=O)Nc1ccc(OCC(C)(C)C)nn1)N1CCC(F)(F)[C@@H](c2ccc(=O)[nH]c2)C1 [Example 89, (S)-2-((S)-4,4-difluoro-3-(6-oxo-1,6-dihydropyridin-3-yl)piperidin-1-yl)-N-(6-(neopenlyloxy)pyridazin-3-yl)propanamide] | 100 to 3160 nM
4 | C[C@@H](C(=O)Nc1ccc2cc(C3CC3)ccc2n1)N1CCC(F)(F)[C@@H](c2ccc(=O)[nH]c2)C1 [Example 25, (S)-N-(6-cyclopropylquino-lin-2-yl)-2-((S)-4,4-difluoro-3-(6-oxo-1,6-dihydropyridin-3-yl)piperidin-1-yl)propanamide] | 100 to 3160 nM
5 | CC(C(=O)Nc1ccc(-c2ccn(C)n2)cn1)N1CCC(F)(F)[C@@H](c2ccc(=O)[nH]c2)C1 (stereo partly drawn) [Example 55, 2-((S)-4,4-difluoro-3-(6-oxo-1,6-dihydropyridin-3-yl)piperidin-1-yl)-N-(5-(1-methyl-1H-pyrazol-3-yl)pyridin-2-yl)propanamide] | 3160 to 31600 nM
6 | C[C@@H](C(=O)Nc1ccc(Oc2ccc(F)cc2F)cn1)N1CCC(F)(F)C(c2ccnc(CN3CC(F)(F)C3)c2)C1 (mixture of isomers) [Example 270, (2S)-2-(3-(2-((3,3-difluoroazetidin-1-yl)methyl)pyridin-4-yl)-4,4-difluoropiperidin-1-yl)-N-(5-(2,4-difluorophenoxy)pyridin-2-yl)propanamide] | 10 to 100 nM
7 | CC(C)Oc1ccc(NC(=O)C(C)N2CCC(F)(F)[C@@H](c3ccc(=O)[nH]c3)C2)nc1 (stereo partly drawn) [Example 26, 2-((S)-4,4-difluoro-3-(6-oxo-1,6-dihydropyridin-3-yl)piperidin-1-yl)-N-(5-isopropoxy-pyridin-2-yl)propanamide] | 100 to 3160 nM
8 | CC(C(=O)Nc1ccc(Cc2ccccn2)cn1)N1CCC(F)(F)[C@@H](c2ccc(=O)[nH]c2)C1 (stereo partly drawn) [Example 57, 2-((S)-4,4-difluoro-3-(6-oxo-1,6-dihydropyridin-3-yl)piperidin-1-yl)-N-(5-(pyridin-2-ylmethyl)pyridin-2-yl)propanamide hydrochloride] | 100 to 3160 nM
9 | CC(C(=O)Nc1ccc(OC2CCCCC2)cn1)N1CCC(F)(F)[C@@H](c2ccc(=O)[nH]c2)C1 (stereo partly drawn) [Example 24, N-(5-(cyclohexyloxy)pyridin-2-yl)-2-((S)-4,4-difluoro-3-(6-oxo-1,6-dihydropyridin-3-yl)piperidin-1-yl)propanamide] | 100 to 3160 nM
10 | C[C@@H](C(=O)Nc1ccc(Cl)cn1)N1CCC[C@@H](c2c[nH]c(=O)c(CN)c2)C1 (single isomer, unassigned) [Example 175] | 3160 to 31600 nM
11 | C[C@@H](C(=O)Nc1ccc(OCC2CC2)nn1)N1CCC(F)(F)[C@@H](c2c[nH]c(=O)c(CN)c2)C1 [Example 203, (S)-2-((S)-3-(5-(aminomethyl)-6-oxo-1,6-dihydropyridin-3-yl)-4,4-difluoropiperidin-1-yl)-N-(6-(cyclopropylmethoxy)pyridazin-3-yl)propanamide] | 10 to 100 nM
12 | C[C@@H](C(=O)Nc1cnc(Oc2ccc(F)cc2)cn1)N1CCC(F)(F)[C@@H](c2c[nH]c(=O)c(CN)c2)C1 [Example 206, (S)-2-((S)-3-(5-(aminomethyl)-6-oxo-1,6-dihydropyridin-3-yl)-4,4-difluoropiperidin-1-yl)-N-(5-(4-fluorophenoxy)pyrazin-2-yl)propanamide] | 10 to 100 nM
13 | C[C@@H](C(=O)Nc1ccc(OCC2CC2)nn1)N1CCC(F)(F)[C@@H](c2cc[n+]([O-])cc2)C1 (single isomer, unassigned) [Example 109] | 100 to 3160 nM
14 | C[C@@H](C(=O)Nc1ccc(Oc2ccc(F)cc2CO)cn1)N1CCC(F)(F)[C@@H](c2ccc(=O)[nH]c2)C1 [Example 271, (S)-2-((S)-4,4-difluoro-3-(6-oxo-1,6-dihydropyridin-3-yl)piperidin-1-yl)-N-(5-(4-fluoro-2-(hydroxymethyl)phenoxy)pyridin-2-yl)propanamide] | 10 to 100 nM
15 | CC(C(=O)Nc1ccc(F)cn1)N1CCC(F)(F)C(c2c[nH]c(=O)c(C#N)c2)C1 (stereo not shown) [Example 249, 2-(3-(5-cyano-6-oxo-1,6-dihydropyridin-3-yl)-4,4-difluoropiperidin-1-yl)-N-(5-fluoropyridin-2-yl)propanamide] | 100 to 3160 nM
16 | CC(C(=O)Nc1ccc(Cl)cn1)N1CCC(F)(F)C(c2c[nH]c(=O)c(CO)c2)C1 (stereo not shown) [Example 155, N-(5-chloropyridin-2-yl)-2-(4,4-difluoro-3-(5-(hydroxymethyl)-6-oxo-1,6-dihydropyridin-3-yl)piperidin-1-yl)propanamide] | 100 to 3160 nM
17 | C[C@@H](C(=O)Nc1cnc(Oc2ccc(F)cc2F)cn1)N1CCC(F)(F)[C@@H](c2cc[n+]([O-])cc2)C1 [Example 132, 4-((S)-1-((S)-1-((5-(2,4-difluorophenoxy)pyrazin-2-yl)amino)-1-oxopropan-2-yl)-4,4-difluoropiperidin-3-yl)pyridine 1-oxide] | ≤ 10 nM
18 | C[C@@H](C(=O)Nc1ccc(Oc2ncc(F)cc2F)cn1)N1CCC(F)(F)[C@@H](c2c[nH]c(=O)c(CN3CCOCC3)c2)C1 [Example 228, (S)-2-((S)-4,4-difluoro-3-(5-(morpholinomethyl)-6-oxo-1,6-dihydropyridin-3-yl)piperidin-1-yl)-N-(5-((3,5-difluoropyridin-2-yl)oxy)pyridin-2-yl)propanamide] | 10 to 100 nM

Now from value to molecule:

Row | IC50 | SMILES
19 | 10 to 100 nM | CC(C(=O)Nc1ccc(Oc2ncc(F)cc2C#N)cn1)N1CCC(F)(F)[C@@H](c2ccc(=O)[nH]c2)C1 (stereo partly drawn) [Example 92, N-(5-((3-cyano-5-fluoropyridin-2-yl)oxy)pyridin-2-yl)-2-((S)-4,4-difluoro-3-(6-oxo-1,6-dihydropyridin-3-yl)piperidin-1-yl)propanamide]
20 | 10 to 100 nM | C[C@@H](C(=O)Nc1ccc(Cc2ccncc2)cn1)N1CCC(F)(F)[C@@H](c2ccc(=O)[nH]c2)C1 [Example 13, (S)-2-((S)-4,4-difluoro-3-(6-oxo-1,6-dihydropyridin-3-yl)piperidin-1-yl)-N-(5-(pyridin-4-ylmethyl)pyridin-2-yl)propanamide]
21 | 10 to 100 nM | C[C@@H](C(=O)Nc1ccc(C2CCCC2)cn1)N1CCC(F)(F)[C@@H](c2ccc(=O)[nH]c2)C1 [Example 14, (S)-N-(5-cyclopentyl-pyridin-2-yl)-2-((S)-4,4-difluoro-3-(6-oxo-1,6-dihydropyridin-3-yl)piperidin-1-yl)propanamide]
22 | ≤ 10 nM | C[C@@H](C(=O)Nc1cnc(Oc2ccc(F)cc2F)cn1)[C@H]1CCC(F)(F)[C@@H](c2cc[n+]([O-])cc2)C1 [Example 295, 4-((1R,5S)-5-((R)-1-((5-(2,4-difluorophenoxy)pyrazin-2-yl)amino)-1-oxopropan-2-yl)-2,2-difluorocyclohexyl)pyridine 1-oxide]
23 | ≤ 10 nM | C[C@@H](C(=O)Nc1ccc(Oc2c(F)cccc2F)cn1)N1CCC(F)(F)[C@@H](c2cc[n+]([O-])cc2)C1 [Example 130, 4-((S)-1-((S)-1-((5-(2,6-difluorophenoxy)pyridin-2-yl)amino)-1-oxopropan-2-yl)-4,4-difluoropiperidin-3-yl)pyridine 1-oxide]
24 | 10 to 100 nM | CC(C(=O)Nc1ccc(Oc2ccc(F)cc2)cn1)N1CCC(F)(F)C(c2c[nH]c(=O)c(CN(C)C)c2)C1 (stereo not shown) [Example 230, 2-(3-(5-((dimethylamino)methyl)-6-oxo-1,6-dihydropyridin-3-yl)-4,4-difluoropiperidin-1-yl)-N-(5-(4-fluorophenoxy)pyridin-2-yl)propanamide]
25 | 10 to 100 nM | CC(N)c1cc(C2CN([C@@H](C)C(=O)Nc3ccc(OCC4CC4)nn3)CCC2(F)F)c[nH]c1=O (stereo partly drawn) [Example 222, (2S)-2-(3-(5-(1-aminoethyl)-6-oxo-1,6-dihydropyridin-3-yl)-4,4-difluoropiperidin-1-yl)-N-(6-(cyclopropylmethoxy)pyridazin-3-yl)propanamide]
26 | ≤ 10 nM | CC(C(=O)Nc1ncc(Oc2ccc(F)cc2F)cc1F)N1CCC(F)(F)[C@@H](c2ccc(=O)[nH]c2)C1 (stereo partly drawn) [Example 87, 2-((S)-4,4-difluoro-3-(6-oxo-1,6-dihydropyridin-3-yl)piperidin-1-yl)-N-(5-(2,4-difluorophenoxy)-3-fluoropyridin-2-yl)propanamide]
27 | ≤ 10 nM | C[C@@H](C(=O)Nc1ccc(Oc2ccc(F)cc2)cn1)N1CCC(F)(F)[C@@H](c2c[nH]c(=O)c(CO)c2)C1 [Example 156]
28 | ≤ 10 nM | C[C@@H](C(=O)Nc1ccc(Oc2ccc(F)cc2F)cn1)N1CCC(F)(F)[C@@H](c2cc[n+]([O-])c(C(N)=O)c2)C1 (single isomer, unassigned) [Example 258]
29 | ≤ 10 nM | C[C@@H](C(=O)Nc1ccc(Oc2ccc(F)cn2)cn1)N1CCC(F)(F)[C@@H](c2ccc(=O)[nH]c2)C1 [Example 69, (S)-2-((S)-4,4-difluoro-3-(6-oxo-1,6-dihydropyridin-3-yl)piperidin-1-yl)-N-(5-((5-fluoropyridin-2-yl)oxy)pyridin-2-yl)propanamide]
30 | ≤ 10 nM | C[C@@H](C(=O)Nc1ccc(Oc2ccc(F)cc2)cn1)N1CCC(F)(F)C(c2c[nH]c(=O)c(C(O)C(F)(F)F)c2)C1 (stereo partly drawn) [Example 211, (2S)-2-(4,4-difluoro-3-(6-oxo-5-(2,2,2-trifluoro-1-hydroxyethyl)-1,6-dihydropyridin-3-yl)piperidin-10-yl)-N-(5-(4-fluorophenoxy)pyridin-2-yl)propanamide]

Same assay, conditions: […]; agonist Cortistatin-14 at 4×EC50; 30 min incubation at 37° C.; mean of a minimum of 2 experiments

Row | SMILES | pIC50
31 | C[C@@H](C(=O)Nc1cnc(Oc2ccc(F)cc2F)cn1)N1CCC(F)(F)[C@@H](c2cc[n+]([O-])cc2)C1 [Example 132, 4-((S)-1-((S)-1-((5-(2,4-difluorophenoxy)pyrazin-2-yl)amino)-1-oxopropan-2-yl)-4,4-difluoropiperidin-3-yl)pyridine 1-oxide] | 8.6
